Assay results published in patent US12180226B2, “Spirotricycle RIPK1 inhibitors and methods of uses thereof” (Merck Sharp & Dohme LLC, priority 2021, dated 2024).

biological target: RIPK1 (recombinant GST-RIPK1 kinase domain, residues 1-327) (Homo sapiens (Human), UniProt Q13546); assay: RIPK1-ADP-Glo Enzymatic Assay; assay type: biochemical; conditions: ADP-Glo; 25 nM GST-RIPK1, 300 μM ATP; assay lower limit ~25 nM; read-out: RIPK1 V0 Ec50
Procedure, shortened: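 Enzyme from baculovirus-infected Sf21 cells, 25 nM final, was pre-incubated 30 min at ambient temperature with compound (ten-point, 1:3 dilution from 100000 nM, 1% DMSO), then reacted 150 min with 300 μM ATP and 3 μM dephosphorylated MBP. ADP was read by luminescence; EC50 from four-parameter fit.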

RIPK1 (recombinant GST-RIPK1 kinase domain, residues 1-327), sequence (Q13546 1-327): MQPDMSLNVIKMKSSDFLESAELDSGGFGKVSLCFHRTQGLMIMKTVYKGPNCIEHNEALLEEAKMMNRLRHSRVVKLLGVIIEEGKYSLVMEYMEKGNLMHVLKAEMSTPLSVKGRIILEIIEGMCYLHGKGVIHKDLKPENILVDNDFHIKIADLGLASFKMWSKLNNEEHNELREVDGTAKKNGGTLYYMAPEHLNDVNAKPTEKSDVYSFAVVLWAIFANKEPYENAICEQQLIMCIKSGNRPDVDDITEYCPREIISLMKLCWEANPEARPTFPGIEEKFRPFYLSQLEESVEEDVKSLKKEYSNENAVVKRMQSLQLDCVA

Row | EC50 [nM] | SMILES
1 | 550 | O=C(c1cc(C(F)(F)F)cnn1)N1CCC2(CC1)O[C@@H]1CC[C@@H](c3cc(F)cc(F)c3)N1C2=O [Example 6.34, (5′S,7a′R)-5′-(3,5-difluorophenyl)-1-[5-(trifluoromethyl)pyrid-azine-3-carbonyl] tetrahydro-3′H-spiro [piperidine-4,2′-pyrrolo[2,1-b][1,3]oxazol]-3′-one]
2 | 413 | N#CCc1nc(C(=O)N2CCC3(CC2)O[C@@H]2CC[C@@H](c4cc(F)cc(F)c4)N2C3=O)cs1 [Example 6.29, {4-[(5′S,7a′R)-5′-(3,5-difluorophenyl)-3-oxo-tetrahydro-1H,3′H-spiro[piperidine-4,2′-pyrrolo[2,1-b][1,3]oxazole]-1-carbonyl]-1,3-thiazol-2-yl} acetonitrile]
3 | < 25 | N#Cc1ccc(F)c(C(=O)N2CCC3(CC2)O[C@@H]2CC[C@@H](c4cccc(F)c4)N2C3=O)c1 [Example 6.130, 4-fluoro-3-[(5′S,7a′R)-5′-(3-fluorophenyl)-3′-oxotetrahydro-1H,3′H-spiro[piperidine-4,2′-pyrrolo[2,1-b][1,3]-oxazole]-1-carbonyl] benzonitrile]
4 | 429 | O=C1N2[C@@H](CC[C@H]2c2ccccc2F)OC12CN(S(=O)(=O)c1ccccc1)C2 [Example 8.5, (5′S,7a′R)-5′-(2-fluorophenyl)-1-(phenylsulfonyl)tetra-hydro-3′H-spiro[azetidine-3,2′-pyrrolo[2,1-b]oxazol]-3′-one]
5 | 528 | Cc1ncccc1C(=O)N1CCC2(CC1)O[C@@H]1CC[C@@H](c3cc(F)cc(F)c3)N1C2=O [Example 6.52, (5′S,7a′R)-5′-(3,5-difluorophenyl)-1-(2-methylpyridine-3-carbonyl)tetrahydro-3′H-spiro[piperidine-4,2′-pyrrolo[2,1-b] [1,3]oxazol]-3′-one]
6 | 672 | O=C1N2[C@@H](CC[C@H]2c2cc(F)cc(F)c2)OC12CCN(S(=O)(=O)c1cccc(F)c1)CC2 [Example 8.4, (5′S,7a′R)-5′-(3,5-difluorophenyl)-1-[(3-fluorophenyl)sulfonyl] tetrahydro-3′H-spiro[piperidine-4,2′-pyrrolo[2,1-b][1,3]oxazol]-3′-one]
7 | < 25 | O=C(c1ccc2sncc2c1)N1CCC2(CC1)O[C@@H]1CC[C@@H](c3cc(F)cc(F)c3)N1C2=O [Example 6.65, (5′S,7a′R)-1-(1,2-benzothiazole-5-carbonyl)-5′-(3,5-difluorophenyl)tetra-hydro-3′H-spiro [piperidine-4,2′-pyrrolo[2,1-b][1,3]-oxazol]-3′-one]
8 | < 25 | O=C1N2[C@@H](CC[C@H]2c2cc(F)cc(F)c2)OC12CCN(c1ccc(-c3ncco3)c3ncnn13)CC2 [Example 21.1, (5′S,7a′R)-5′-(3,5-Difluorophenyl)-1-(8-(oxazol-2-yl)-[1,2,4]triazolo[1,5-a]pyridin-5-yl)tetrahydro-3′H-spiro[piperidine-4,2′-pyrrolo[2,1-b]oxazol]-3′-one]
9 | < 25 | Cc1ccc(C(=O)N2CCC3(CC2)O[C@@H]2CC[C@@H](c4ccccc4)N2C3=O)c(F)c1 [Example 6.152, (5′S,7a′R)-1-(2-fluoro-4-methylbenzene-1-carbonyl)-5′-phenyl-tetrahydro-3′H-spiro [piperidine-4,2′-pyrrolo[2,1-b][1,3]oxazol]-3′-one]
10 | 31.6 | O=C(c1cccc(N2CCCC2)n1)N1CCC2(CC1)O[C@@H]1CC[C@@H](c3cc(F)cc(F)c3)N1C2=O [Example 6.96, (5′S,7a′R)-5′-(3,5-difluorophenyl)-1-[6-(pyrrolidin-1-yl)pyri-dine-2-carbonyl]tetra-hydro-3′H-spiro[piperi-dine-4,2′-pyrrolo[2,1-b][1,3]oxazol]-3′-one]
11 | < 25 | Cc1cnc(-c2ccc(N3CCC4(CC3)O[C@@H]3CC[C@@H](c5ccccc5)N3C4=O)n3nccc23)o1 [Example 21.17, (5′S,7a′R)-1-[4-(5-methyl-1,3-oxazol-2-yl)pyrazolo[1,5-a]pyridin-7-yl]-5′-phenyltetrahydro-3′H-spiro[piperidine-4,2′-pyrrolo[2,1-b][1,3]oxazol]-3′-one]

Second part, the compound before the results:

Row | SMILES | EC50 [nM]
12 | COc1nc(N2CCC3(CC2)O[C@@H]2CC[C@@H](c4cc(F)cc(F)c4)N2C3=O)ncc1C#N [Example 4.38, 2-[(5′S,7a′R)-5′-(3,5-difluorophenyl)-3′-oxotetrahydro-1H,3′H-spiro[piperidine-4,2′-pyrrolo[2,1-b] [1,3]oxazol]-1-yl]-4-methoxypyrimidine-5-carbonitrile] | 12
13 | O=C1N2[C@@H](CC[C@H]2c2cccc(F)c2)OC12CCN(c1cc(-c3ccccc3)ncn1)CC2 [Example 4.125, (5′S,7a′R)-5′-(3-fluorophenyl)-1-(6-phenylpyrimidin-4-yl)tetrahydro-3′H-spiro[piperidine-4,2′-pyrrolo[2,1-b] [1,3]oxazol]-3′-one] | < 25
14 | O=C1N2[C@@H](CC[C@H]2c2ccccc2)OC12CCN(c1cc(-c3ccco3)ccn1)CC2 [Example 4.169, (5′S,7a′R)-1-[4-(furan-2-yl)pyridin-2-yl]-5′-phenyltetrahydro-3′H-spiro[piperidine-4,2′-pyrrolo[2,1-b] [1,3]oxazol]-3′-one] | 26.4
15 | O=C1N2[C@@H](CC[C@H]2c2ccccc2)OC12CCN(c1ncc(Br)c3ncnn13)CC2 [Example 4.239, (5′S,7a′R)-1-(8-bromo [1,2,4]triazolo[1,5-c]pyrimidin-5-yl)-5′-phenyltetrahydro-3′H-spiro[piperidine-4,2′-pyrrolo[2,1-b] [1,3]oxazol]-3′-one] | < 25
16 | CC1CN(c2cccc3ncnn23)CCC12O[C@@H]1CC[C@@H](c3cc(F)cc(F)c3)N1C2=O (stereo partly drawn) [Example 4.265, (5′S,7a′R)-5′-(3,5-difluorophenyl)-3-methyl-1-([1,2,4]triazolo[1,5-a]pyridin-5-yl)tetrahydro-3′H-spiro[piperidine-4,2′-pyrrolo[2,1-b] [1,3]oxazol]-3′-one] | 28.4
17 | COC(=O)c1c(C)cc(N2CCC3(CC2)O[C@@H]2CC[C@@H](c4ccccc4)N2C3=O)nc1C#N [Example 4.192, methyl 2-cyano-4-methyl-6-[(5′S,7a′R)-3′-oxo-5′-phenyltetrahydro-1H,3′H-spiro[piperidine-4,2′-pyrrolo[2,1-b] [1,3]oxazol]-1-yl] pyridine-3-carboxylate] | 54.4
18 | O=C(c1ccccc1F)N1CCC2(CC1)O[C@@H]1CC[C@@H](c3ccccc3F)N1C2=O [Example 1.16, (5′S,7a′R)-1-(2-fluorobenzoyl)-5′-(2-fluorophenyl)tetrahydro-3′H-spiro[piperidine-4,2′-pyrrolo[2,1-b]oxazol]-3′-one] | < 25
19 | Cc1nocc1C(=O)N1CCC2(CC1)O[C@@H]1CC[C@@H](c3cc(F)cc(F)c3)N1C2=O [Example 5.33, (5′S,7a′R)-5′-(3,5-difluoro-phenyl)-1-(3-methylisoxa-zole-4-carbonyl)tetrahydro-3′H-spiro[piperidine-4,2′-pyrrolo[2,1-b]oxazol]-3′-one] | 189
20 | C#Cc1ccnc(C(=O)N2CCC3(CC2)O[C@@H]2CC[C@@H](c4cc(F)cc(F)c4)N2C3=O)c1 [Example 5.43, (5′S,7a′R)-5′-(3,5-difluoro-phenyl)-1-(4-ethynylpico-linoyl)tetrahydro-3′H-spiro[piperidine-4,2′-pyrrolo[2,1-b]oxazol]-3′-one] | < 25
21 | O=C(c1cc(F)ccc1F)N1CCC2(CC1)O[C@@H]1CC[C@@H](c3ccccc3)N1C2=O [Example 1.11, (5′S,7a′R)-1-(2,5-difluorobenzene-1-carbonyl)-5′-phenyltetrahydro-3′H-spiro[piperidine-4,2′-pyrrolo[2,1-b] [1,3]oxazol]-3′-one] | < 25
22 | N#Cc1ccc(N2CCC3(CC2)O[C@@H]2CC[C@@H](c4cccc(F)c4)N2C3=O)n2nccc12 [Example 4.157, 7-[(5′S,7a′R)-5′-(3-fluorophenyl)-3′-oxotetrahydro-1H,3′H-spiro[piperidine-4,2′-pyrrolo[2,1-b] [1,3]oxazol]-1-yl]pyrazolo[1,5-a] pyridine-4-carbonitrile] | < 25
23 | O=C1N2[C@@H](CC[C@H]2c2ccccc2F)OC12CCN(c1ncnc3ccnn13)CC2 [Example 4.252, (5′S,7a′R)-5′-(2-fluorophenyl)-1-(pyrazolo[1,5-a] [1,3,5]triazin-4-yl)tetrahydro-3′H-spiro[piperidine-4,2′-pyrrolo[2,1-b] [1,3]oxazol]-3′-one] | < 25
24 | O=C1N2[C@@H](CC[C@H]2c2cc(F)cc(F)c2)OC12CCN(c1ccnc3ccnn13)CC2 [Example 4.6, (5′S,7a′R)-5′-(3,5-difluorophenyl)-1-(pyrazolo[1,5-a]pyrimidin-7-yl)tetrahydro-3′H-spiro[piperidine-4,2′-pyrrolo[2,1-b] [1,3]oxazol]-3′-one] | < 25
25 | CC1CC2(CCN1c1ccnc3c(F)cnn13)O[C@@H]1CC[C@@H](c3ccccc3)N1C2=O (stereo partly drawn) [Example 4.225, (4R,5′S,7a′R)-1-(3-fluoropyrazolo[1,5-a]pyrimidin-7-yl)-2-methyl-5′-phenyltetrahydro-3′H-spiro[piperidine-4,2′-pyrrolo[2,1-b] [1,3]oxazol]-3′-one] | 31.8
26 | NC(=O)c1ccc(N2CCC3(CC2)O[C@@H]2CC[C@@H](c4ccccc4F)N2C3=O)n2ncnc12 [Example 4.151, 5-[(5′S,7a′R)-5′-(2-fluorophenyl)-3′-oxotetrahydro-1H,3′H-spiro[piperidine-4,2′-pyrrolo[2,1-b] [1,3]oxazol]-1-yl][1,2,4]triazolo[1,5-a] pyridine-8-carboxamide] | < 25
27 | O=C1N2[C@@H](CC[C@H]2c2ccccc2)OC12CCN(c1ccc(-c3nnc(C(F)(F)F)o3)cn1)CC2 [Example 4.165, (5′S,7a′R)-5′-phenyl-1-{5-[5-(trifluoromethyl)-1,3,4-oxadiazol-2-yl]pyridin-2-yl}tetrahydro-3′H-spiro[piperidine-4,2′-pyrrolo[2,1-b] [1,3]oxazol]-3′-one] | 144
